{
  "source": "patent US4960596A",
  "about": "(Ethypharm, priority 1987, dated 1990)",
  "origin": "cited, not measured here",
  "key": {"[1]": {"conditions": "literature"}, "[2]": {"tested_on": "special channels to be found in the membranes of a variety of cells (calcium)"}, "[3]": {"tested_on": "heart muscle"}, "[4]": {"tested_on": "smooth muscle"}, "[5]": {"tested_on": "sodium-potassium pump", "conditions": "smooth muscle cells and other types of cell"}},
  "note": "Structures can show the parent of a compound that is named as a salt.",
  "data": [
    {"smiles": "COc1ccc(C2Sc3ccccc3N(CCN(C)C)C(=O)C2OC(C)=O)cc1", "note": "(stereo not drawn) [Diltiazem, Diltiazem hydrochloride]", "values": [
      {"measurement": "half life", "setting": "[1]", "value": "four hours to seven hours"},
      {"measurement": "calcium inflow", "setting": "[2]", "value": "inhibit the inflow of calcium"},
      {"measurement": "heart pacemaker activity and auriculo-ventricular node conduction", "setting": "[3]", "value": "depressive effective on heart pacemaker activity and on auriculo-ventricular node conduction resulting in a negative chronotropic effect"},
      {"measurement": "inotropic effect", "setting": "[3]", "value": "weak negative inotropic effect on the heart muscle"},
      {"measurement": "effect on smooth muscle", "setting": "[4]", "value": "vasodilatation of smooth muscle"},
      {"measurement": "intra-cellular sodium", "setting": "[5]", "value": "reduces intra-cellular sodium by stimulating the sodium-potassium pump"}
    ]}
  ]
}
